From BindingDB's records for doi:10.1021/jm00392a002 (1987)
Non-standard residues stand in square brackets, D forms with d. Residues, ends and D or L forms follow the SMILES beside them. ξ: configuration not given here. Met(O) = CS(=O)CC[C@H](N)C(=O)O; ξA = CC(N)C(=O)O; Sar = CNCC(=O)O

These compounds were tested against Delta-type opioid receptor (Cavia porcellus) (assay: Evaluated for the inhibition of [3H]DADLE binding to Opioid receptor delta 1 of guinea pig brain).
For `C[C@@H](NC(=O)[C@@H](N)Cc1ccc(O)cc1)C(=O)N[C@@H](Cc1ccccc1)C(=O)NCC(N)=O` (H-Y[dA]FG-NH2), the IC50 was 818 nM.
`CN(CC(=O)O)C(=O)[C@H](Cc1ccccc1)NC(=O)[C@H](CC[S+](C)[O-])NC(=O)[C@@H](N)Cc1ccc(O)cc1` (stereo partly specified) (H-Y[Met(O)]F[Sar]-OH) showed an IC50 of 2120 nM.
With `CN(CC(N)=O)C(=O)[C@H](Cc1ccccc1)NC(=O)[C@H](CC[S+](C)[O-])NC(=O)[C@@H](N)Cc1ccc(O)cc1` (stereo partly specified) (H-Y[Met(O)]F[Sar]-NH2) the IC50 was 440 nM.
In the case of `CC(NC(=O)[C@H](Cc1ccccc1)NC(=O)[C@H](CC[S+](C)[O-])NC(=O)[C@@H](N)Cc1ccc(O)cc1)C(N)=O` (stereo partly specified) (H-Y[Met(O)]F[ξA]-NH2), the IC50 is reported as 900 nM.
With `COC(=O)CN(C)C(=O)[C@H](Cc1ccccc1)NC(=O)[C@H](CC[S+](C)[O-])NC(=O)[C@@H](N)Cc1ccc(O)cc1` (stereo partly specified) (H-Y[Met(O)]F[Sar]-OMe) the IC50 was 510 nM.
Work on `COC(=O)CN(C)C(=O)[C@H](Cc1ccccc1)NC(=O)[C@H](CC[S+](C)[O-])NC(=O)[C@H](Cc1ccc(O)cc1)N=C(N)N` (stereo partly specified) yielded an IC50 of 150 nM.
